Paper PMC7316994, “In Vitro Pharmacological Profile of a New Small Molecule Bradykinin B2 Receptor Antagonist” (Frontiers in Pharmacology, 2020)

How the values were obtained:
[1] = target: Adrenergic β3 (Homo sapiens, UniProt P13945); assay: radioligand binding (Table S2); settings: read-out: % Inhibition @ 10 µM
[2] = target: T1, Serotonin 5-HT6 (Homo sapiens, UniProt P50406); assay: radioligand binding (Table S2); settings: [3H] LSD, Human recombinant CHO cells
T1 construct: host or cells: CHO cells
T1 sequence (P50406 whole entry): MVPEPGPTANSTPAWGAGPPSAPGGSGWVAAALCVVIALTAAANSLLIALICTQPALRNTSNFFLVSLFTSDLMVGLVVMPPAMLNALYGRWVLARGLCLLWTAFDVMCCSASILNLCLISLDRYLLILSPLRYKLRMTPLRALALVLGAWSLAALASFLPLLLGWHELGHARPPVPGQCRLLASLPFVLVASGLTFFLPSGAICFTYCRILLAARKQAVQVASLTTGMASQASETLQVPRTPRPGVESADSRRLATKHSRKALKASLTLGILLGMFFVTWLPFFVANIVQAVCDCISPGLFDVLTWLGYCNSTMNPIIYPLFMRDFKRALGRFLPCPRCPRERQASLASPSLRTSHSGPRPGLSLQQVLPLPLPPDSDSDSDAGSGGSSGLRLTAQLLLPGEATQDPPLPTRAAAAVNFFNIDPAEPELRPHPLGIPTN

[3] = target: Muscarinic M3 (Homo sapiens, UniProt P20309); assay: radioligand binding (Table S2); settings: read-out: % Inhibition @ 10 µM
[4] = target: T2, Corticotropin-releasing factor CRF1 (Homo sapiens, UniProt P34998); assay: functional assay, cAMP HTRF, CHO cells (Table S2); type: cell-based
T2 construct: expressed in transfected cells; host or cells: CHO cells
T2 sequence (P34998 24-415): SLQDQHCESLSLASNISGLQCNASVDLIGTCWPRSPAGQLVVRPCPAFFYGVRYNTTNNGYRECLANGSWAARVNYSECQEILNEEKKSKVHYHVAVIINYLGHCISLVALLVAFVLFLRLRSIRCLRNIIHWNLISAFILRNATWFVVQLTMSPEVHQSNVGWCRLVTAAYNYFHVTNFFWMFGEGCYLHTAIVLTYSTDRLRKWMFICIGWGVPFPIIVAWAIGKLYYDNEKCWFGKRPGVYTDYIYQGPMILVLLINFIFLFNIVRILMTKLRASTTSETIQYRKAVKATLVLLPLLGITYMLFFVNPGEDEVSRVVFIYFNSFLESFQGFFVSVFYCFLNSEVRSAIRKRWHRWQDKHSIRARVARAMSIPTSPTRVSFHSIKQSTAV

[5] = target: Gamma-aminobutyric acid GABAB1A (Homo sapiens, UniProt Q9UBS5); assay: radioligand binding (Table S2); settings: read-out: % Inhibition @ 10 µM
[6] = target: T3, Leukotriene B4 receptor BLT1 (Homo sapiens, UniProt Q15722); assay: radioligand binding (Table S2); settings: [3H] LTB4, Human recombinant CHO cells
T3 construct: host or cells: CHO cells
T3 sequence (Q15722 whole entry): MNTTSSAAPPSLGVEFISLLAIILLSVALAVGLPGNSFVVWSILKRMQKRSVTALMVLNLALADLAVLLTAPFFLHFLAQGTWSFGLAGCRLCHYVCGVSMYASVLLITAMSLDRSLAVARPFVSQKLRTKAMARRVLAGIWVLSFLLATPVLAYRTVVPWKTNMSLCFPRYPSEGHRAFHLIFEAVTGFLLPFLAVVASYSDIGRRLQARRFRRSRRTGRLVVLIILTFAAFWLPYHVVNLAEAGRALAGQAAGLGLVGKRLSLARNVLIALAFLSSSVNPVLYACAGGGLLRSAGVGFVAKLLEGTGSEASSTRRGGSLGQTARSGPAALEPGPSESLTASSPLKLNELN

[7] = target: T4, COX2 (Homo sapiens, UniProt P35354); assay: enzyme assay (Table S2); type: biochemical; settings: Arachidonic acid (2 µM) + ADHP, Fluorimetry
T4 construct: Eurofins (assay provider); host or cells: Sf9 cells
T4 sequence (P35354 18-604): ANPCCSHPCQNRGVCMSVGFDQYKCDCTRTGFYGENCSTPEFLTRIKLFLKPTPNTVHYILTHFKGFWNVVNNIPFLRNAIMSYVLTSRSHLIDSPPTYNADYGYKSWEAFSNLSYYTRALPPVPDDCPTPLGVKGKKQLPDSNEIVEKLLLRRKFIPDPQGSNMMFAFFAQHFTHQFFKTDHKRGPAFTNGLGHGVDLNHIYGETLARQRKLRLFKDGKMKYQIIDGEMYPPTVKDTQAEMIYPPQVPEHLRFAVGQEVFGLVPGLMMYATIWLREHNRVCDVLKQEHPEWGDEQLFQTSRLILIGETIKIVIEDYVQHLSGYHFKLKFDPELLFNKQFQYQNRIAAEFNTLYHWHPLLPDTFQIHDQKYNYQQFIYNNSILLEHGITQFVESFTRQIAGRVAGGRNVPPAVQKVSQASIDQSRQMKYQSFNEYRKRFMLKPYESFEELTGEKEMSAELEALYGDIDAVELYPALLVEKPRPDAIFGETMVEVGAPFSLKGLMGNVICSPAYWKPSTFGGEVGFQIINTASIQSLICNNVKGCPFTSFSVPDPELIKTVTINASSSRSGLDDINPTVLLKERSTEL

[8] = target: T5, Nicotinic N neuronal α4β2 (Homo sapiens, UniProt P17787+P43681); assay: radioligand binding (Table S2); settings: [3H] Cytisine, Human recombinant SH-SY5Y cells
T5 construct: host or cells: SH-SY5Y cells

[9] = target: T6, Acetylcholinesterase (Homo sapiens, UniProt P22303); assay: enzyme assay (Table S2); type: biochemical; settings: Acetylthiocholine (400 µM), Photometry
T6 construct: Eurofins (assay provider); host or cells: HEK-293 cells

[10] = target: T7, Bombesin BB1 (Homo sapiens, UniProt P28336); assay: functional assay, intracellular [Ca2+], CHO cells (Table S2); type: cell-based
T7 construct: host or cells: CHO cells
T7 sequence (P28336 whole entry): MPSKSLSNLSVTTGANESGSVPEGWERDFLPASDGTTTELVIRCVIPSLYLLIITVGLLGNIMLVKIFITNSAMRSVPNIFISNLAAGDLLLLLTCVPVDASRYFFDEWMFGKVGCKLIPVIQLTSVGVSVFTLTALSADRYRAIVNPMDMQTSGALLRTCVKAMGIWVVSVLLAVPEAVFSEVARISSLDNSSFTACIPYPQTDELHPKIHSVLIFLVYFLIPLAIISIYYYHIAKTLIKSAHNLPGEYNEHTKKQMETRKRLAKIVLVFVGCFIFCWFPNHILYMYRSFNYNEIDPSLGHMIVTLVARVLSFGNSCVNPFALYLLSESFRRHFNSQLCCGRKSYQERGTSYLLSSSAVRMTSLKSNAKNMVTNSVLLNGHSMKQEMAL

[11] = in vitro; settings: human, Caco-2
[12] = target: T8, Vasopressin V1a (Homo sapiens, UniProt P37288); assay: radioligand binding (Table S2); settings: [3H] AVP, Human recombinant CHO cells
T8 construct: host or cells: CHO cells
T8 sequence (P37288 whole entry): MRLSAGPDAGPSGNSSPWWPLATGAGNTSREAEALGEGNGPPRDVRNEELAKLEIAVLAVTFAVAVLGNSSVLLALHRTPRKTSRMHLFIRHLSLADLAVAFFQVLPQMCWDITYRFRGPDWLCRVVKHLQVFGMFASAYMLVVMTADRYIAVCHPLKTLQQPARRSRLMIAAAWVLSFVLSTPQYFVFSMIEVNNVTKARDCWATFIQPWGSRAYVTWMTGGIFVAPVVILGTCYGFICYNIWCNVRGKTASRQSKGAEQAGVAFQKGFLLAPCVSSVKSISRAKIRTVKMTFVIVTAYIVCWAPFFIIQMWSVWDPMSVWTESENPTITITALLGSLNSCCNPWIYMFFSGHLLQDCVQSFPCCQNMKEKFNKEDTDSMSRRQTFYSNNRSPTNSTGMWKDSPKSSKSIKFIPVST

[13] = target: T9, Adenosine A2A (Homo sapiens, UniProt P29274); assay: radioligand binding (Table S2); settings: [3H] CGS 21680, Human recombinant HEK-293 cells
T9 construct: host or cells: HEK-293 cells
T9 sequence (P29274 whole entry): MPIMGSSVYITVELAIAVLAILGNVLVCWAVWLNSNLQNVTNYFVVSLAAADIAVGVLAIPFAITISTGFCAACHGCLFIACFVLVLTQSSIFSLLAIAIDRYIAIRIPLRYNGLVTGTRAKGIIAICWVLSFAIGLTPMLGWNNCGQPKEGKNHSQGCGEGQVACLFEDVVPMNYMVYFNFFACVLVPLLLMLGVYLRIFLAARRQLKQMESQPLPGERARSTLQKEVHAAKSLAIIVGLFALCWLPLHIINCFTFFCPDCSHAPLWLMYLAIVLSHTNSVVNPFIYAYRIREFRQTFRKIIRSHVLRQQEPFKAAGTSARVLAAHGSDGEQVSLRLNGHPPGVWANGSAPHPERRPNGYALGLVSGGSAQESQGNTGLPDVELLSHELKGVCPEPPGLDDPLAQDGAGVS

[14] = target: T10, Growth hormone secretagogue (GHS, ghrelin) (Homo sapiens, UniProt Q92847); assay: radioligand binding (Table S2); settings: [125I] Ghrelin (human), Human recombinant CHO-K1 cells
T10 construct: host or cells: CHO-K1 cells
T10 sequence (Q92847 whole entry): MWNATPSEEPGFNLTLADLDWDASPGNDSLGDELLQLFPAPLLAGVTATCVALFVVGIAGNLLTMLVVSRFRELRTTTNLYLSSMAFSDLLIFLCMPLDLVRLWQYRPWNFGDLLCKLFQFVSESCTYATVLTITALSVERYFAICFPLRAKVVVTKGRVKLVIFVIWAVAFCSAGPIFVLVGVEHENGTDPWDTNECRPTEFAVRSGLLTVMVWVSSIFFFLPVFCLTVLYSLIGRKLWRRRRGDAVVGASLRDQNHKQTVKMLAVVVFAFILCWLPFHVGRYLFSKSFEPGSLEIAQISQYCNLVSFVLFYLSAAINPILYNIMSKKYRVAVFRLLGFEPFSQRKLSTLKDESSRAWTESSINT

[15] = test system: Glycine, strychnine-sensitive; assay: radioligand binding (Table S2); settings: [3H] Strychnine, Wistar rat spinal cord
[16] = test system: Kainate; assay: radioligand binding (Table S2); settings: [3H] Kainic acid, Rat cerebral cortex
[17] = target: T11, Serotonin 5-HT2A (Homo sapiens, UniProt P28223); assay: radioligand binding (Table S2); settings: [125I] (±)DOI, Human recombinant HEK-293 cells
T11 construct: host or cells: HEK-293 cells
T11 sequence (P28223 whole entry): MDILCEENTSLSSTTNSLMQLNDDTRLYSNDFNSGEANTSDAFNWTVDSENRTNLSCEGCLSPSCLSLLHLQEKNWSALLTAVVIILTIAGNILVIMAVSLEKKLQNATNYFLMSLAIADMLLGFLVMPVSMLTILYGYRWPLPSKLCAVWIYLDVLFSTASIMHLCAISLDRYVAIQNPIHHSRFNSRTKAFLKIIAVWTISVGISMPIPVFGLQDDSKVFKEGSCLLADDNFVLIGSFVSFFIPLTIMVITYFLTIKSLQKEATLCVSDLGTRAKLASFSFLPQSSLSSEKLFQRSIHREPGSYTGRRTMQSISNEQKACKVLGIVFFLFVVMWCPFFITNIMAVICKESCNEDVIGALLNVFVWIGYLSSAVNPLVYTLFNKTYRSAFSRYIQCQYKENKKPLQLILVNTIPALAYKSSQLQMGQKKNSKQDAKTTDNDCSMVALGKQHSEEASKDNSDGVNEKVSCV

[18] = target: T12, Melanocortin MC5 (Homo sapiens, UniProt P33032); assay: radioligand binding (Table S2); settings: [125I] NDP-α-MSH, Human recombinant CHO cells
T12 construct: host or cells: CHO cells
T12 sequence (P33032 whole entry): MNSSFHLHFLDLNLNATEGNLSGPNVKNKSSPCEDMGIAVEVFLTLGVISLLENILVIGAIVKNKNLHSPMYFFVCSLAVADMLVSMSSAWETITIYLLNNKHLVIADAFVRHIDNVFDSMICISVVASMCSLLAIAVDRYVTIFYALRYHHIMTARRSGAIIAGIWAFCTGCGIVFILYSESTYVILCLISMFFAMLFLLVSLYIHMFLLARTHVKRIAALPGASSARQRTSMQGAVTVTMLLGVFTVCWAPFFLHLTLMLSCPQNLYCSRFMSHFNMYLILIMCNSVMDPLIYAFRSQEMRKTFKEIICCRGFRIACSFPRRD

[19] = target: T13, myc-tagged human B2 receptor (Homo sapiens, UniProt P30411); assay: antibody internalization assay, HEK 293a cells; type: cell-based; settings: BK 100 nM; antagonist 1 nM to 1 μM, 15 min before BK
T13 construct: expressed in transfected cells
Description: B2 receptor-mediated transport of immune complexes constructed at the cell surface was previously reported ([Bawolak et al., 2011]). Intact HEK 293a cells stably expressing the N-terminally myc-tagged B2 receptor construction (human sequence, [Charest-Morin et al., 2015]) were treated with the monoclonal anti-myc antibody (clone 4A6) conjugated with AlexaFluor-488 (Millipore, dilution 1:500) added to the culture medium. Cells were further incubated at 37°C. Without rinsing, a selected antagonist or their DMSO vehicle was added 5 min later, and BK (100 nM) or its saline vehicle 15 min later. After an additional 30 min incubation period at 37°C, cells were rinsed 3 times with Hank's balanced salt solution (Multicell Wisent, St. Bruno, Canada) and photographed in transmission and epifluorescence using an Olympus BX51 microscope coupled to a CoolSnap HQ digital camera (filters for AlexaFluor 488: excitation 460–500 nm, emission 510–560 nm).

[20] = target: T14, Prostanoid FP (Homo sapiens, UniProt P43088); assay: radioligand binding (Table S2); settings: [3H] Prostaglandin F2α, Human recombinant HEK-293 cells
T14 construct: host or cells: HEK-293 cells
T14 sequence (P43088 whole entry): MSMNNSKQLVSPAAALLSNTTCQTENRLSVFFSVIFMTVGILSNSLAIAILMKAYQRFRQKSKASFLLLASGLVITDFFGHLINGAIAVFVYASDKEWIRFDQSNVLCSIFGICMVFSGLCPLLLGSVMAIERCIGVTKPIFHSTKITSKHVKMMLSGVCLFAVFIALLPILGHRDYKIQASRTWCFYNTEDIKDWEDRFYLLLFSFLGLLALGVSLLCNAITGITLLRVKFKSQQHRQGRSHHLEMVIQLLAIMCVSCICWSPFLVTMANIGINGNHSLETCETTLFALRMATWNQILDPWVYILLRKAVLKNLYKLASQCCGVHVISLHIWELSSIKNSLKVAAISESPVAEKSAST

[21] = target: T15, Endothelin ETB (Homo sapiens, UniProt P24530); assay: radioligand binding (Table S2); settings: [125I] Endothelin-1, Human recombinant CHO cells
T15 construct: host or cells: CHO cells
T15 sequence (P24530 27-442): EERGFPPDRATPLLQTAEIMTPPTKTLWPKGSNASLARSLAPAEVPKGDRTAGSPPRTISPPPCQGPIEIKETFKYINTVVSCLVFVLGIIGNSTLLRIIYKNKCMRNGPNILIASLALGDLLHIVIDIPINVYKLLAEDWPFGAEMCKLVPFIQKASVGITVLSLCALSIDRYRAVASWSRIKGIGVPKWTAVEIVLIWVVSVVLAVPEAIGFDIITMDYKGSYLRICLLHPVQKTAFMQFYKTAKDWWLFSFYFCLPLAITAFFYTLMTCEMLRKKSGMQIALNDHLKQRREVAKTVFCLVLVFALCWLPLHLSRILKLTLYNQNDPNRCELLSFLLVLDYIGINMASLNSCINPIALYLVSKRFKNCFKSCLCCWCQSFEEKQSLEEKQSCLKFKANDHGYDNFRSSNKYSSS

[22] = target: T16, Histamine H1 (Homo sapiens, UniProt P35367); assay: radioligand binding (Table S2); settings: [3H] Pyrilamine, Human recombinant HEK-293 cells
T16 construct: host or cells: HEK-293 cells

[23] = test system: Benzodiazepine BZD (central); assay: radioligand binding (Table S2); settings: [3H] Flunitrazepam, Rat cerebral cortex
[24] = target: T17, Vasopressin V2 (Homo sapiens, UniProt P30518); assay: functional assay, cAMP HTRF, CHO cells (Table S2); type: cell-based; settings: read-out: % inhibition of reference agonist response @ 10 µM (antagonist effect), AVP (0.03 nM)
T17 construct: expressed in transfected cells; host or cells: CHO cells

Chain of Adrenergic β3 (P13945 whole entry): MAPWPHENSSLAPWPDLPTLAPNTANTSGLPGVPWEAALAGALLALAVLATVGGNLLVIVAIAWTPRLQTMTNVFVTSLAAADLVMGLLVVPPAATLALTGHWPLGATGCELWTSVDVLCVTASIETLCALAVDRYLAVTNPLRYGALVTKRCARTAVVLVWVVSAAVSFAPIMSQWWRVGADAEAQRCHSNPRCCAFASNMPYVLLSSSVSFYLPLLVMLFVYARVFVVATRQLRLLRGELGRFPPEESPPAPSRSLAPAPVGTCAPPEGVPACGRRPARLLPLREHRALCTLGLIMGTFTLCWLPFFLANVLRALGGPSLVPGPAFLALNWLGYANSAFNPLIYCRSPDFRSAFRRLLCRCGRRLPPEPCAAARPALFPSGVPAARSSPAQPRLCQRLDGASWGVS

## Cc1cc(-c2ncnn2C)c2cccc(OCc3c(Cl)cc(F)cc3[C@H](C)NC(=O)COC(F)F)c2n1 [Compound 3, (S)-N-(1-(3-chloro-5-fluoro-2-((2-methyl-4-(1-methyl-1H-1,2,4-triazol-5-yl)quinolin-8-yloxy)methyl)phenyl)ethyl)-2-(difluoromethoxy)acetamide]
[1]
  inhibition at 10 µM: 8.1%
[2]
  inhibition at 10 µM: -4.5%
[3]
  inhibition at 10 µM: 4.2%
[4]; 10 µM, reference ovine CRF (1 µM)
  % of reference agonist response @ 10 µM (agonist effect): -2.7%
[4]; CHO, read-out: % inhibition of reference agonist response @ 10 µM (antagonist effect), 10 µM, Ovine CRF (10 nM)
  inhibition at 10 µM: 55.7%
[4]; Ovine CRF (10 nM), read-out: IC50 (µM), functional antagonism
  IC50: 10 µM
[4]; Ovine CRF (10 nM), read-out: Kb (µM), functional antagonism
  Kb: 3.6 µM
[5]
  inhibition at 10 µM: 8%
[6]
  inhibition at 10 µM: 16.7%
[7]
  inhibition at 10 µM: -18.8%
[8]
  inhibition at 10 µM: -33.6%
[9]
  inhibition at 10 µM: 8.4%
[10]; CHO, read-out: % inhibition of reference agonist response @ 10 µM (antagonist effect), Neuromedin B (0.1 nM)
  inhibition at 10 µM: 28.5%
[10]; reference neuromedin B (10 nM)
  % of reference agonist response @ 10 µM (agonist effect): 4.4%
[11]
  Papp A→B at 60 min, 10 µM: 17.3 ×10⁻⁶ cm/s
  Papp B→A at 60 min, 10 µM: 17.6 ×10⁻⁶ cm/s
[12]
  % Inhibition @ 10 µM: 84%
  inhibition at 10 µM: 84.1%
[13]
  inhibition at 10 µM: 9.8%
[14]
  inhibition at 10 µM: 6%
[15]
  % Inhibition @ 10 µM: -1%
[16]
  % Inhibition @ 10 µM: -4.4%
[17]
  inhibition at 10 µM: -3.8%
[18]
  inhibition at 10 µM: -9.6%
[19]
  concentration with clear efficacy in inhibiting BK-induced endocytosis: ≥ 100 nM
[20]
  inhibition at 10 µM: 19%
[21]
  inhibition at 10 µM: 7.2%
[22]
  inhibition at 10 µM: 2.5%
[23]
  % Inhibition @ 10 µM: -25.8%
[24]
  inhibition at 10 µM: -15.1%
